The results in this text go back to US20140080810A1 (Exelixis, Inc., priority 2010, published 2014).

In assay [1] the test system is pAKT (T308) in PC-3 cells (PTEN-null). Briefly: pAKT (T308) ELISA Assay. The assay is classed as cell-based. The settings on record: Homo sapiens. On the procedure: MCF-7 cells (ATCC) cells were seeded at 24000 cells per well in 96-well plates (Corning, 3904) in DMEM (Cellgro) containing 10% FBS (Cellgro), 1% NEAA (Cellgro) and 1% penicillin-streptomycin (Cellgro). Cells were incubated at 37° C., 5% CO2 for 48 h, and the growth medium was replaced with serum-free DMEM or in medium containing 0.4% BSA. Serial dilutions of the test Compound in 0.3% DMSO (vehicle) were added to the cells and incubated for 3 h. At the end of the incubation period, cells were stimulated for 10 minutes by the addition of L-IGF (Sigma, I-1271) at a final concentration of 100 ng/ml. Afterwards, media was discarded from cell plates and 110 μl/well of cold lysis buffer (see table below) were added. Cell plates were incubated on ice and then put on shaker in 4° C. cold room for 1 h. Two capture plates (Thermo Scientific, Reacti-bind plate, 15042) were prepared for each cell plate by pre-coating with capture Akt antibody from the two sandwich ELISA antibody pairs used (Cell Signaling Technology 7142 and 7144). The Akt capture antibodies were diluted 1:100 in PBS and 100 μl of diluted capture antibody was added per well. Capture plates were incubated at 4 C overnight. […] After 1 h of cell lysis, 85 μl of cell lysate/well was transferred to the capture plate for detection of pAkt(T308). 15 μl of cell lysate was transferred from same well to the second capture plate for detection of total Akt1. After incubation overnight at 4° C., plates were washed 3 times with 200 μL TBST. Primary antibodies, diluted 1:100 in blocking buffer, were added to the corresponding capture plates for pAkt(T308) (Cell Signaling Technology, 7144) and total Akt1 (Cell Signaling Technology, 7142) detection and incubated at room temperature for 1 h. Plates were washed 3 times with 200 μL of TBST. Goat anti-mouse secondary antibody (Cell Signaling Technology, 7076) conjugated to HRP was diluted 1:1000 in blocking buffer and 100 μl were added to each well and incubated for 30 minutes at room temperature. Plates were then washed 3 times with 200 μL of TBST. 100 μL of SuperSignal ELISA Femto stable peroxidase solution (Thermo Scientific, 37075) was added to each well. After 1 minute incubation, chemiluminescence was read on a Wallac Victor2 1420 multilabel counter. IC50 values were determined based on the ratio of pAkt(T308) to total Akt1 signal for Compound treated wells, normalized to the DMSO-treated control wells.
In another embodiment, the pAKT ELISA Assay was performed by seeding cells onto 96-well plates (Corning, 3904) in their respective growth media at the densities listed in Table 5. Cells were incubated at 37° C., 5% CO2 for 48 h (except MDA-MB-453 cells which were cultured in the absence of CO2). Compounds were serially diluted in DMSO and subsequently diluted in serum-free DMEM. Test compounds were added to cells in serum-free DMEM at a final concentration of 0.3% DMSO and incubated for 3 h. Cells were lysed with 130 μL of ice-cold RIPA lysis buffer (50 mM Tris-HCl, pH 7.5; 0.5% sodium deoxycholic acid; 1% Triton X-100; 0.1% SDS; 150 mM NaCl) with protease and phosphatase inhibitors (1 mM EDTA, 1 mM NaF, 20 mM β-glycerophosphate, 1 mM Na-orthovanadate, Complete-Mini EDTA-free, Roche, 11836170001, and Phosphatase Inhibitor Cocktail I, Sigma, P2850), directly in 96-well plates. Cells were lysed on ice for 60-120 min at 4° C. The supernatants were added directly to capture ELISA plates previously pre-coated with rabbit anti-AKT capture antibody. ELISA assays for pAKT(T308) and total AKT were performed with the pAKT(T308) ELISA kit (Cell Signaling Technology, 7144) and AKT1 ELISA kit (Cell Signaling Technology, 7142). For the pAKT(T308) ELISA, 85 μL of cell lysate was added to each well. For the total AKT1 ELISA, 15 μL of cell lysate and 85 μL of Starting Block buffer (Pierce, 37543) were added to each well.
In general terms: An ELISA detects its analyte on a solid surface through an enzyme-linked reagent.

Assay [2] has as its system pAKT (T308) in SK-OV-3 cells (PI3Kα H1047R). Description: pAKT (T308) ELISA Assay. The assay is classed as cell-based. The settings on record: Homo sapiens, IGF1 stimulation, read-out: Cellular pAKT (T308) IC50 PI3KαH1047R SK-OV-3 IGF1. On the procedure: In another embodiment, the pAKT ELISA Assay was performed by seeding cells onto 96-well plates (Corning, 3904) in their respective growth media at the densities listed in Table 5. Cells were incubated at 37° C., 5% CO2 for 48 h (except MDA-MB-453 cells which were cultured in the absence of CO2). Compounds were serially diluted in DMSO and subsequently diluted in serum-free DMEM. Test compounds were added to cells in serum-free DMEM at a final concentration of 0.3% DMSO and incubated for 3 h. Cells were lysed with 130 μL of ice-cold RIPA lysis buffer (50 mM Tris-HCl, pH 7.5; 0.5% sodium deoxycholic acid; 1% Triton X-100; 0.1% SDS; 150 mM NaCl) with protease and phosphatase inhibitors (1 mM EDTA, 1 mM NaF, 20 mM β-glycerophosphate, 1 mM Na-orthovanadate, Complete-Mini EDTA-free, Roche, 11836170001, and Phosphatase Inhibitor Cocktail I, Sigma, P2850), directly in 96-well plates. Cells were lysed on ice for 60-120 min at 4° C. The supernatants were added directly to capture ELISA plates previously pre-coated with rabbit anti-AKT capture antibody. ELISA assays for pAKT(T308) and total AKT were performed with the pAKT(T308) ELISA kit (Cell Signaling Technology, 7144) and AKT1 ELISA kit (Cell Signaling Technology, 7142). For the pAKT(T308) ELISA, 85 μL of cell lysate was added to each well. For the total AKT1 ELISA, 15 μL of cell lysate and 85 μL of Starting Block buffer (Pierce, 37543) were added to each well. The plates were incubated overnight at 4° C. with gentle shaking, then washed 3 times with 200 μL of TBST (20 mM Tris, pH 7.4; 150 mM NaCl; 0.1% Tween 20) for 30 s each, and incubated for 1 h with 100 μL of detection antibody (mouse anti-pAKT(T308) antibody or mouse anti-AKT1 antibody). After 3 washes with TBST, the plates were incubated with a 1:1000 dilution of a horseradish peroxidase-labeled anti-mouse IgG (Cell Signaling Technology, 7076) in 100 μL of Starting Block buffer for 0.5 h. After 3 washes with TBST, 50 μL of SuperSignal ELISA Femto substrate solution (Thermo Scientific, 37075A) and 50 μL of SuperSignal ELISA enhancer solution mixture (Thermo Scientific, 37075B) were added to each well and the plates were incubated for approximately 2 min and protected from light. The wells were measured for luminescence using a Wallac plate reader at wavelength of 560 nm. After normalization of pAKT signal to total AKT1 signal, IC50 values were determined relative to the DMSO-treated control.

[3] abbreviates: IGF1 stimulation, read-out: pAKT (T308) IC50 PC# PTEN-null IGF1.
Setting [4] is: LPA stimulation, read-out: pAKT (T308) IC50 PC# PTEN-null LPA.

Structures are written as SMILES. Where two headings read alike, the source gives them in different places.

Usually IC50 stands for the midpoint of a concentration-inhibition curve.

For `CCNc1nc2ccc(-c3ccc4c(c3)CN(c3ncnc(NCC)c3C)CCO4)cc2[nH]1` [Compound 699], the results for the IC50 in assay [1] (setting [3]), in assay [1] (setting [4]) and in assay [2] were 2120 nM, 3800 nM and 1240 nM, respectively.
As for `COc1ccc2c(N3CCOc4ccc(-c5cnc6nc(C)[nH]c6c5)cc4C3)nc(CN(C)C)nc2c1` [Compound 696], the values for the IC50 in assay [1] (setting [3]), in assay [1] (setting [4]) and in assay [2] were 1680 nM, 1860 nM and 956 nM, respectively.
The matching figures for `CCNc1nc2ccc(-c3ccc4c(c3)CN(c3ccnc5cc(F)ccc35)CCO4)cc2[nH]1` [Compound 698]: 2870 nM, 4540 nM and 438 nM.
With `Cc1nc2cc(-c3ccc4c(c3)CN(c3nc(CN(C)C)nc(C)c3C(C)C)CCO4)cnc2[nH]1` [Compound 694], the IC50 in assay [1] (setting [3]) amounted to 231 nM; in assay [1] (setting [4]) it was 571 nM.
